Experiments:
Test in all cases: relative viability (nuclei count vs DMSO), 5 days (fraction); higher = more cells survive
[1] = compound: Cn1cc(-c2cnn3c(N)c(Br)c([C@@H]4CCCNC4)nc23)cn1 + CC(=O)Nc1cccc(-n2c(=O)n(C3CC3)c(=O)c3c(Nc4ccc(I)cc4F)n(C)c(=O)c(C)c32)c1 [Trametinib] (partner 0.02 µM)
Procedure, shortened: (§1)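 Relative viability is defined as nuclei in treated wells over nuclei in vehicle wells. Duplicate plates were run and medians reported. Lung cancer cell lines in 1536-well plates were dosed by pin tool one day after seeding, with one drug or with a fixed anchor-drug dose plus five library-drug doses (not always all listed) in √10 steps, and nuclei were counted after 5 days.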

[2] = compound: Cn1cc(-c2cnn3c(N)c(Br)c([C@@H]4CCCNC4)nc23)cn1 + COc1cccc2cc(-c3nc([C@H]4CC[C@H](C(=O)O)CC4)n4ncnc(N)c34)[nH]c12 [OSI-027] (partner 0.5 µM)
Procedure, shortened: as §1

[3] = compound: Cn1cc(-c2cnn3c(N)c(Br)c([C@@H]4CCCNC4)nc23)cn1 + N=C(N)NC(=N)NCCc1ccccc1 [Phenformin] (partner 250 µM)
Procedure, shortened: as §1

[4] = compound: Cn1cc(-c2cnn3c(N)c(Br)c([C@@H]4CCCNC4)nc23)cn1 + C[C@@H](Oc1cc(-c2cnn(C3CCNCC3)c2)cnc1N)c1c(Cl)ccc(F)c1Cl [Crizotinib] (partner 1 µM)
Procedure, shortened: as §1

Cell Line	relative viability ([1]; first compound 0.05 µM)	relative viability ([1]; first compound 0.1581 µM)	relative viability ([1]; first compound 0.5 µM)	relative viability ([1]; first compound 1.581 µM)	relative viability ([1]; first compound 5 µM)	relative viability ([2]; first compound 0.05 µM)	relative viability ([2]; first compound 0.1581 µM)	relative viability ([2]; first compound 0.5 µM)	relative viability ([2]; first compound 1.581 µM)	relative viability ([2]; first compound 5 µM)	relative viability ([3]; first compound 0.05 µM)	relative viability ([3]; first compound 0.1581 µM)	relative viability ([3]; first compound 0.5 µM)	relative viability ([3]; first compound 1.581 µM)	relative viability ([3]; first compound 5 µM)	relative viability ([4]; first compound 0.05 µM)	relative viability ([4]; first compound 0.1581 µM)	relative viability ([4]; first compound 0.5 µM)	relative viability ([4]; first compound 1.581 µM)	relative viability ([4]; first compound 5 µM)
NCI-H2023	0.606	0.336	0.416	0.227	0.185	0.438	0.342	0.269	0.159	0.13	0.426	0.368	0.245	0.203	0.129	0.702	0.428	0.436	0.272	0.172
NCI-H2085	0.532	0.664	0.548	0.484	0.287	0.809	0.954	0.78	0.652	0.431	0.692	0.746	0.737	0.626	0.516	0.846	1.01	0.733	0.794	0.646
NCI-H2087	0.151	0.203	0.178	0.164	0.189	0.498	0.696	0.641	0.454	0.503	0.47	0.479	0.483	0.485	0.507	1.01	1.27	0.939	0.983	0.954
NCI-H2126	0.628	0.549	0.548	0.561	0.597	0.715	0.744	0.74	0.673	0.672	0.492	0.543	0.51	0.491	0.47	1.1	1.09	1.07	0.932	1.03
NCI-H2170	0.973	0.93	0.927	0.763	1.13	0.759	0.801	0.687	0.649	0.653	0.415	0.441	0.429	0.429	0.429	1.19	1.21	1.19	1.16	1.12
NCI-H2228	0.717	0.563	0.5	0.282	0.239	0.689	0.674	0.592	0.458	0.315	0.274	0.256	0.373	0.184	0.194	0.502	0.491	0.404	0.419	0.277
NCI-H2347	0.272	0.285	0.298	0.251	0.232	0.418	0.594	0.291	0.377	0.326	0.338	0.396	0.406	0.449	0.337	0.63	0.588	0.788	0.668	0.637
NCI-H2405	0.642	0.644	0.553	0.577	0.455	0.607	0.594	0.652	0.623	0.54	0.384	0.522	0.398	0.363	0.318	0.884	0.849	0.794	0.765	0.611

Reference: the supplement of paper PMC10307832
